Experimental data reported in US5763435A, “Sulfate conjugates of ursodeoxycholic acid, and their beneficial use in inflammatory disorders” (priority 1995, dated 1998).

What was measured:
[1] = test system: Principal Bile Acids in Liver; test: Bile acid composition of liver tissue after oral administration (GC-MS); type: in vivo, Sprague-Dawley rats; settings: for Chenodeoxycholic acid concentration in liver / Chenodeoxycholic acid percent of hepatic bile acids / Cholic acid concentration in liver / Cholic acid percent of hepatic bile acids / Deoxycholic acid concentration in liver / Deoxycholic acid percent of hepatic bile acids / Lithocholic acid concentration in liver / Lithocholic acid percent of hepatic bile acids / Total bile acid concentration in liver / UDCA percent of hepatic bile acids / Δ^22-UDCA concentration in liver / Δ^22-UDCA percent of hepatic bile acids / Δ^22-β-Muricholic acid concentration in liver / Δ^22-β-Muricholic acid percent of hepatic bile acids / Δ^22-ω-Muricholic acid concentration in liver / Δ^22-ω-Muricholic acid percent of hepatic bile acids / α-Muricholic acid concentration in liver / α-Muricholic acid percent of hepatic bile acids / β-Muricholic acid concentration in liver / β-Muricholic acid percent of hepatic bile acids / ω-Muricholic acid concentration in liver / ω-Muricholic acid percent of hepatic bile acids: oral gavage 250 mg/day, 4 days; for Hepatic UDCA concentration change (in words): oral, vs control
Experimental: Male Sprague-Dawley rats (Harlan Sprague-Dawley, Inc., Indianapolis, Ind.), weighing 210-290 g, were maintained on a 12-hour light-dark cycle and fed standard laboratory chow ad libitum for 3 days. The animals were then transferred to metabolic cages in which they were housed individually and fed the same diet. UDCA, UDCA 3-sulfate, UDCA 7-sulfate, and UDCA 3,7-disulfate were administered by gavage at a dose of 250 mg/day for 4 consecutive days. Each group comprised 3-6 rats. Body weights of the animals were measured each day. On day 5, the animals were killed by exsanguination under ether anesthesia. Plasma was collected and frozen at -20° C. The liver was removed, rinsed in normal saline, and flash-frozen in liquid nitrogen. Urine and feces were collected every 24 hours and frozen at -20° C. All animals received humane care in compliance with the "Guide for the Care and Use of Laboratory Animals" prepared by the National Academy of Sciences (National Institutes of Health publication no. 86-23, revised in 1985).
Samples of liver (100 mg) were ground to a fine paste, and bile acids were extracted by reflux and passage through a column of Lipidex 1000 as described above for intestinal contents and feces. Group separation of bile acids, according to their mode of conjugation was achieved by lipophilic anion-exchange chromatography. Extracts from each animal were pooled, and bile acids and their conjugates were separated using Lipidex-DEAP and stepwise elution of the gel bed with the following buffers: 0.1 mol/L acetic acid in 72% ethanol (unconjugated bile acids); 0.3 mol/L acetic acid in 72% ethanol, pH 5.0 (glycine conjugates); 0.15 mol/L acetic acid in 72% ethanol, pH 6.5 (taurine conjugates); and 0.3 mol/L acetic acid in 72% ethanol, pH 9.6 (sulfate conjugates). After evaporation of the buffers, sulfated bile acids were solvolyzed, whereas amidated conjugates were hydrolyzed with 50 U of cholylglycine hydrolase (Sigma Chemical Co.) in 2.5 mL of 0.2 mol/L phosphate buffer, pH 5.6, at 37° C. overnight. The resulting unconjugated bile acids were isolated on Lipidex-DEAP, and the methyl ester-trimethylsilyl ether derivatives were prepared as described above.
GC-MS analysis was performed using a Finnigan 4635 mass spectrometer (Finnigan Inc., San Jose, Calif.) that housed an identical gas chromatography column operated under the same conditions. Electron ionization (70 eV) mass spectra were recorded over the mass range of 50-800 daltons by repetitive scanning of the eluting components. Identification of bile acids was made on the basis of the gas chromatography retention index relative to a homologous series of n-alkanes, referred to as the methylene unit value, and the mass spectrum compared with authentic standards. Quantification of bile acids was achieved using gas chromatography by comparing the peak height response of the individual bile acids with the peak height response obtained from the internal standard.
Data are expressed as mean±SEM or as mean values of all animals when extracts were pooled before analysis. Results from different groups were compared using paired and unpaired two-tailed Student's t-test. P values of <0.05 were considered statistically significant.

[2] = test system: bile acids secreted in bile; test: Biliary bile acid composition during i.v. infusion (GC-MS); type: in vivo, Sprague-Dawley rats; settings: for Further hydroxylation (in words): GC-MS of bile
Experimental: Adult male Sprague-Dawley rats (body weight 200-230 g) were anesthetized by an intraperitoneal injection of pentobarbital (Nembutal, 7.5 mg/100 g body weight), and maintained under sedation by additional doses. The right jugular vein and the common bile duct were cannulated using PE-50 polyethylene tubing (Clay-Adams, Parsippany, N.J.). Body temperature was maintained throughout the experiment at 37° C. using a rectal probe and a thermostatically controlled heating pad (Harvard Apparatus Co., Inc., Millis, Mass.). Saline was infused at a rate of 1.0 ml/h using a Harvard pump (Harvard Apparatus Co., Inc.) into the jugular vein for a control period of 2h. After collecting two 10 minute bile samples for base-line analysis, the bile acids were individually infused intravenously (i.v.) for 30 minutes in stepwise increasing doses (0.5, 1.0, and 2.0 μmol/min/100 g body weight). Bile acid solutions were prepared in 3% human albumin in 0.45% saline. Six animals were used for each experiment and bile was collected every 10 minutes into preweighed tubes. At the end of the experiment, blood was obtained by cardiac puncture, and urine was obtained by aspiration of the bladder. All biological specimens were stored at -20° C. This animal study protocol (#1 B 10044) was approved by the Bioethics committee of the Children's Hospital Medical Center (Cincinnati, Ohio).
GC-MS was carried out on either a VG Autospec Q magnetic sector instrument or a Finnigan 4635 quadruple GC-MS-DS instrument housing identical GC columns and operated under the same chromatographic conditions. Electron ionization (70 eV) mass spectra were recorded over the mass range 50 to 1000 Da/e by repetitive scanning of the eluting components.
For the determination of hepatic biotransformation of the infused bile acid, bile collections from the six animal were pooled and biliary bile acids were determined by GC-MS after extraction, solvolysis, hydrolysis, and derivatization. Quantification of bile acids was achieved using GC, by comparing the peak height response of the individual bile acid with the peak height response obtained from the internal standard, nordeoxycholic acid added to the initial sample of bile. Identification of a bile acid was made on the basis of the retention index relative to a homologous series of n-alkanes, referred to as the methylene unit value (MU) and the fragmentation pattern of the mass spectrum was compared with authentic standards. A list of over 100 mass spectra of authentic bile acid standards and retention indices was recently compiled as a reference source (Lawson, A. M., et al, Mass spectrometry of bile acids, The Bile Acids, Vol. 4, Methods and Applications, pp. 167-267 (1988)).

C[C@H](CCC(=O)O)[C@H]1CC[C@H]2[C@@H]3[C@@H](OS(=O)(=O)O)C[C@@H]4C[C@H](O)CC[C@]4(C)[C@H]3CC[C@]12C [UDCA-7S, ursodeoxycholic acid 7-sulfate]
Chenodeoxycholic acid concentration in liver [1]: 6.4 nmol/g | Chenodeoxycholic acid percent of hepatic bile acids [1]: 1.9% | Cholic acid concentration in liver [1]: 186.1 nmol/g | Cholic acid percent of hepatic bile acids [1]: 56.0% | Deoxycholic acid concentration in liver [1]: 14.9 nmol/g | Deoxycholic acid percent of hepatic bile acids [1]: 4.5% | Lithocholic acid concentration in liver [1]: 3.2 nmol/g | Lithocholic acid percent of hepatic bile acids [1]: 1.0% | Total bile acid concentration in liver [1]: 332.3 nmol/g | UDCA percent of hepatic bile acids [1]: 1.8% | Δ^22-UDCA concentration in liver [1]: 8.7 nmol/g | Δ^22-UDCA percent of hepatic bile acids [1]: 2.6% | Δ^22-β-Muricholic acid concentration in liver [1]: 59.8 nmol/g | Δ^22-β-Muricholic acid percent of hepatic bile acids [1]: 18.0% | Δ^22-ω-Muricholic acid concentration in liver [1]: 6.6 nmol/g | Δ^22-ω-Muricholic acid percent of hepatic bile acids [1]: 2.0% | α-Muricholic acid concentration in liver [1]: 0.4 nmol/g | α-Muricholic acid percent of hepatic bile acids [1]: 0.1% | β-Muricholic acid concentration in liver [1]: 36.1 nmol/g | β-Muricholic acid percent of hepatic bile acids [1]: 10.8% | ω-Muricholic acid concentration in liver [1]: 4.0 nmol/g | ω-Muricholic acid percent of hepatic bile acids [1]: 1.2% | Hepatic UDCA concentration change (in words) [1]: low compared with the control animals | Relative % composition in bile: CA ([2]; 20-30 mins): 20.2% | Relative % composition in bile: CDCA ([2]; 20-30 mins): 1.7% | Relative % composition in bile: DCA ([2]; 20-30 mins): 2.3% | Relative % composition in bile: MCA ([2]; 20-30 mins): 1.3% | Relative % composition in bile: UDCA ([2]; 20-30 mins): 61.3% | Relative % composition in bile: α-MCA ([2]; 20-30 mins): 2.5% | Relative % composition in bile: β-MCA ([2]; 20-30 mins): 10.7% | Relative % composition in bile: CA ([2]; 50-60 mins): 7.7% | Relative % composition in bile: CDCA ([2]; 50-60 mins): 0.6% | Relative % composition in bile: DCA ([2]; 50-60 mins): 0.7% | Relative % composition in bile: MCA ([2]; 50-60 mins): 0.6% | Relative % composition in bile: UDCA ([2]; 50-60 mins): 83.6% | Relative % composition in bile: α-MCA ([2]; 50-60 mins): 0.9% | Relative % composition in bile: β-MCA ([2]; 50-60 mins): 5.9% | Relative % composition in bile: CA ([2]; 80-90 mins): 9.9% | Relative % composition in bile: CDCA ([2]; 80-90 mins): 0.7% | Relative % composition in bile: DCA ([2]; 80-90 mins): 1.2% | Relative % composition in bile: MCA ([2]; 80-90 mins): 0.8% | Relative % composition in bile: UDCA ([2]; 80-90 mins): 78.8% | Relative % composition in bile: α-MCA ([2]; 80-90 mins): 1.3% | Relative % composition in bile: β-MCA ([2]; 80-90 mins): 7.4% | Further hydroxylation (in words) [2]: neither UDCA-7S nor UDCA-disulfatewere hydroxylated

C[C@H](CCC(=O)O)[C@H]1CC[C@H]2[C@@H]3[C@@H](OS(=O)(=O)O)C[C@@H]4C[C@H](OS(=O)(=O)O)CC[C@]4(C)[C@H]3CC[C@]12C [UDCA-DS, ursodeoxycholic acid 3,7-disulfate]
Chenodeoxycholic acid concentration in liver [1]: 0.7 nmol/g | Chenodeoxycholic acid percent of hepatic bile acids [1]: 0.2% | Cholic acid concentration in liver [1]: 163.2 nmol/g | Cholic acid percent of hepatic bile acids [1]: 57.7% | Deoxycholic acid concentration in liver [1]: 17.3 nmol/g | Deoxycholic acid percent of hepatic bile acids [1]: 6.1% | Lithocholic acid concentration in liver [1]: 2.2 nmol/g | Lithocholic acid percent of hepatic bile acids [1]: 0.8% | Total bile acid concentration in liver [1]: 282.7 nmol/g | UDCA percent of hepatic bile acids [1]: 1.7% | Δ^22-UDCA concentration in liver [1]: 5.8 nmol/g | Δ^22-UDCA percent of hepatic bile acids [1]: 2.0% | Δ^22-β-Muricholic acid concentration in liver [1]: 23.0 nmol/g | Δ^22-β-Muricholic acid percent of hepatic bile acids [1]: 8.1% | Δ^22-ω-Muricholic acid concentration in liver [1]: 4.0 nmol/g | Δ^22-ω-Muricholic acid percent of hepatic bile acids [1]: 1.4% | α-Muricholic acid concentration in liver [1]: 6.5 nmol/g | α-Muricholic acid percent of hepatic bile acids [1]: 2.3% | β-Muricholic acid concentration in liver [1]: 50.1 nmol/g | β-Muricholic acid percent of hepatic bile acids [1]: 17.7% | ω-Muricholic acid concentration in liver [1]: 5.0 nmol/g | ω-Muricholic acid percent of hepatic bile acids [1]: 1.8% | Hepatic UDCA concentration change (in words) [1]: low compared with the control animals | Relative % composition in bile: CA ([2]; 20-30 mins): 24.5% | Relative % composition in bile: CDCA ([2]; 20-30 mins): 2.5% | Relative % composition in bile: DCA ([2]; 20-30 mins): 2.1% | Relative % composition in bile: MCA ([2]; 20-30 mins): 3.2% | Relative % composition in bile: UDCA ([2]; 20-30 mins): 54.6% | Relative % composition in bile: α-MCA ([2]; 20-30 mins): 3.4% | Relative % composition in bile: β-MCA ([2]; 20-30 mins): 9.7% | Relative % composition in bile: CA ([2]; 50-60 mins): 15.3% | Relative % composition in bile: CDCA ([2]; 50-60 mins): 0.7% | Relative % composition in bile: DCA ([2]; 50-60 mins): 1.2% | Relative % composition in bile: MCA ([2]; 50-60 mins): 2.2% | Relative % composition in bile: UDCA ([2]; 50-60 mins): 70.7% | Relative % composition in bile: α-MCA ([2]; 50-60 mins): 2.2% | Relative % composition in bile: β-MCA ([2]; 50-60 mins): 6.7% | Relative % composition in bile: CA ([2]; 80-90 mins): 10.6% | Relative % composition in bile: CDCA ([2]; 80-90 mins): 0.9% | Relative % composition in bile: MCA ([2]; 80-90 mins): 1.4% | Relative % composition in bile: UDCA ([2]; 80-90 mins): 79.1% | Relative % composition in bile: α-MCA ([2]; 80-90 mins): 2.6% | Relative % composition in bile: β-MCA ([2]; 80-90 mins): 6.5% | Further hydroxylation (in words) [2]: neither UDCA-7S nor UDCA-disulfatewere hydroxylated
